The nature of one data set: in vivo. The settings on record: mouse, po.
The conditions of data set [1]: rat, in vivo.
For a further data set, the system named is arterial pressure. The data set can be described thus: effect onto the arterial pressure of experimental animals. The class given is in vivo. The conditions noted are these: on the contrary to Pivmecillinam.
In the next data set the test system is mice. The data set can be described thus: LD50 after administration per os in mice.
The nature of data set [2]: levels of free acid in serum and organs of rats after per os administration of the aminopropyl dihydrochloride. Format: in vivo.
A short description of data set [3]: LD50 after administration per os in mice. The conditions noted are these: mouse, in vivo, po, LD50, mice, per os.
Data set [4] in a line: comparative levels of 6-/N,N-1',6'-hexyleneformamidine/-penicillanic acid in blood serum, livers, lungs and kidneys of rats after per os administration (Table 2). The class given is in vivo. From the text:
The results of the measurements, expressed in μg/ml are specified in Table 2.

Structures are written as SMILES. Structures can show the parent of a compound that is named as a salt. Where two headings read alike, the source gives them in different places.

On to `CC(C)(C)C(=O)OCOC(=O)[C@@H]1N2C(=O)[C@@H](/N=C/N3CCCCCC3)[C@H]2SC1(C)C` [Pivmecillinam, hydrochloride of pivaloyl-oxymethyl ester of 6-/N,N-1',6'-hecylaneformamidine/-penicillanicacid, reference compound], for which the LD50 (as a rule, the dose expected to kill half of the subjects tested) in “in vivo” amounted to 2600 mg/kg. Also, the level of free acid in blood serum in data set [1] (5 min) was 6300 ng/mL; in data set [1] (10 min), 12700 ng/mL; in data set [1] (15 min), 15500 ng/mL; in data set [1] (30 min), 19200 ng/mL; in data set [1] (45 min) it was 16300 ng/mL; in data set [1] (60 min), 14700 ng/mL. Besides, the level of free acid in blood serum in data set [1] (120 min) turned out to be 7900 ng/mL; in data set [1] (180 min), 2100 ng/mL; in data set [1] (240 min), 1800 ng/mL; in data set [1] (300 min) it was 1500 ng/mL; in data set [1] (360 min), 1100 ng/mL.

In the case of `CC(=O)COC(=O)[C@@H]1N2C(=O)[C@@H](N=CN3CCCCCC3)[C@H]2SC1(C)C` [Hydrochloride of methylacetic ester of 6-/N,N1', 6'-hexylene] [hydrochloride of methylacetic ester of 6-/N, N-1', 6'-hexyleneformamidine/-penicillanic acid], the level of free acid in blood serum in data set [1] (5 min) came to 12900 ng/mL; in data set [1] (10 min) it was 14300 ng/mL; in data set [1] (15 min), 16400 ng/mL; in data set [1] (30 min), 16100 ng/mL; in data set [1] (45 min), 18900 ng/mL; in data set [1] (60 min), 14400 ng/mL. In addition, the level of free acid in blood serum amounted to 9100 ng/mL in data set [1] (120 min); 2100 ng/mL in data set [1] (180 min); 1000 ng/mL in data set [1] (240 min); 800 ng/mL in data set [1] (300 min); 100 ng/mL in data set [1] (360 min). Also, in the data set with arterial pressure, the “effect onto the arterial pressure” value is “no effect”. In addition, in the data set with mice (mice, per os, listed as hydrochloride of said ester), the median lethal dose (LD50) result is “over 5 g/kg of the body weight”.

Regarding `CC(=O)COC(=O)[C@@H]1N2C(=O)[C@@H](N=CN3CCC(CCCN)CC3)[C@H]2SC1(C)C` [dihydrochloride of ester methylacetic of 6-{N,N-[3'-(γ-aminopropyl)-1',5'-pentileneformamidine]}-penicillanicacid], the “levels of free acid in serum and organs relative to equivalent dose of corresponding free acid” value in data set [2] is reported as “multiply higher”.

With `CC1(C)S[C@@H]2[C@H](N=CN3CCCCCC3)C(=O)N2[C@H]1C(=O)O` [6-/N,N-1', 6'-hexyleneformamidine/-penicillanic acid, reference compound], the level of free acid in blood serum in data set [1] (po, 5 min) came to 300 ng/mL; in data set [1] (po, 10 min) it was 900 ng/mL; in data set [1] (po, 0.25 h), 1700 ng/mL; in data set [1] (po, 0.5 h), 1800 ng/mL; in data set [1] (po, 0.75 h) it was 1900 ng/mL; in data set [1] (po, 1 h), 1900 ng/mL. Moreover, the level of free acid in blood serum in data set [1] (po, 2 h) turned out to be 1600 ng/mL; in data set [1] (po, 3 h) it was 1300 ng/mL; in data set [1] (po, 4 h) it was 800 ng/mL; in data set [1] (po, 5 h), 600 ng/mL; in data set [1] (po, 6 h), 500 ng/mL.

`CC(=O)COC(=O)[C@@H]1N2C(=O)[C@@H](N=CN3CCCCCC3)[C@H]2SC1(C)C` [methylacetic ester of 6-/N,N-1', 6'-hexyleneformamidine/-penicillanic acid]: the LD50 in data set [3] was above 3000 mg/kg.

As for `CC(=O)COC(=O)[C@@H]1N2C(=O)[C@@H](N=CN3CCCCCC3)[C@H]2SC1(C)C` [Methylacetic ester of 6-N,N-1', 6'-hexyleneformamidine/-peni] [methylacetic ester of 6-/N,N-1', 6'-hexyleneformamidine/-penicillanic acid], the “levels of free acid in the serum, comparison of preparations” value in data set [1] is reported as “highest levels”. In addition, the “maximum serum level relative to equivalent dose of Pivmecillinam” value in data set [1] was “over two times higher”. Besides, in data set [1], the “maximum serum level relative to equivalent dose of corresponding free acid” value was “over twenty times higher”. Also, the level of free acid in blood serum in data set [1] (5 min) worked out at 29300 ng/mL; in data set [1] (10 min) it was 35000 ng/mL; in data set [1] (15 min), 42700 ng/mL; in data set [1] (30 min), 21100 ng/mL; in data set [1] (45 min), 21200 ng/mL; in data set [1] (60 min), 16900 ng/mL. The level of free acid in blood serum is 4900 ng/mL in data set [1] (120 min); 1600 ng/mL in data set [1] (180 min); 800 ng/mL in data set [1] (240 min); 600 ng/mL in data set [1] (300 min); 300 ng/mL in data set [1] (360 min). Further, the “effect onto the arterial pressure” value in the data set with arterial pressure is “no effect”. In addition, the “maximum level in kidneys relative to equivalent dose of Pivmecillinam” value in data set [4] (kidneys) is “three times”. Moreover, the “maximum level in the liver relative to equivalent dose of Pivmecillinam” value in data set [4] (liver) is “over two times higher”. The “maximum levels in the lungs, ester and Pivmecillinam compared” value in data set [4] (lungs, equivalent doses) is reported as “approximate ones”. Also, in the data set with mice (compared with Pivascillinam), the “toxicity compared with Pivascillinam” value is given as “toxicity lower than that of Pivascillinam”.

The values above are taken from patent publication US4341779A, “Esters of amidinepenicillins” (priority 1978, dated 1982).
